PubChem BioAssay (NCI)
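How tested: cells in 96-well plates exposed to compound for 48 hours at five concentrations. The concentration for 50% growth inhibition is given as GI50. TGI marks complete inhibition of growth.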

How the values were obtained:
Test in all cases: NCI-60 cell line screen, 48 h
CAKI-1 renal = test system: CAKI-1 renal
COLO 205 colon = test system: COLO 205 colon
HCT-116 colon = test system: HCT-116 colon
HL-60(TB) leukemia = test system: HL-60(TB) leukemia
HOP-62 NSCLC = test system: HOP-62 NSCLC
HOP-92 NSCLC = test system: HOP-92 NSCLC
HT29 colon = test system: HT29 colon
MDA-MB-231 breast = test system: MDA-MB-231 breast
OVCAR-4 ovarian = test system: OVCAR-4 ovarian
UACC-257 melanoma = test system: UACC-257 melanoma

Row | SMILES | GI50 (CAKI-1 renal) [µM] | TGI (CAKI-1 renal) [µM] | GI50 (COLO 205 colon) [µM] | TGI (COLO 205 colon) [µM] | GI50 (HCT-116 colon) [µM] | TGI (HCT-116 colon) [µM] | GI50 (HL-60(TB) leukemia) [µM] | TGI (HL-60(TB) leukemia) [µM] | GI50 (HOP-62 NSCLC) [µM] | TGI (HOP-62 NSCLC) [µM] | GI50 (HOP-92 NSCLC) [µM] | TGI (HOP-92 NSCLC) [µM] | GI50 (HT29 colon) [µM] | GI50 (MDA-MB-231 breast) [µM] | TGI (MDA-MB-231 breast) [µM] | GI50 (OVCAR-4 ovarian) [µM] | TGI (OVCAR-4 ovarian) [µM] | GI50 (UACC-257 melanoma) [µM] | TGI (UACC-257 melanoma) [µM] | TGI (HT29 colon) [µM]
1 | CNC(=O)c1c(NC(=O)c2cccc(C(F)(F)F)c2)sc2c1CCC(=O)C2 | 0.282 | 1.22 | 0.382 | 1.48 | 0.199 | 1.59 | 0.318 | 1.98 | 1.94 | > 48.6 | 0.383 | 2.58 | 0.347 | 0.332 | 1.88 | 0.389 | 1.44 | 1.9 | 7.3 | 
2 | Nc1ccc(-c2nc3ccccc3[nH]2)c(O)c1 | 27.1 | 58.1 | 35 | > 100 | 16.3 | 40.7 | 40.4 | > 100 | 60.5 | > 100 | 5.82 | 45.2 | 41 | 17 | 47.3 |  |  | 18.6 | 49.2 | > 100
3 | CC1=C(SCc2ccccc2)C(=O)c2ccccc2C1=O |  | 26.2 |  | 38.9 |  | 18.2 |  | > 100 |  | 33.5 |  | 19 |  |  | 41.3 |  | 27.2 |  | 31.4 | 90.2
4 | C[C@@H]1COCCN1c1nc(-c2cnc(N)cc2C(F)F)nc(N2[C@H](C)COC[C@@H]2C)n1 | 0.19 | 11.4 | 0.371 | 12.5 | 0.485 | 14.5 | 0.863 | 19.5 | 0.332 | 13.2 | 0.09 | 1.14 | 0.349 | 0.412 | 20.8 | 0.278 | 11.9 | 0.323 | 8.05 | 12.9
5 | CCc1ccc(-c2ccc(=O)n(-c3ccc(S(N)(=O)=O)cc3)n2)cc1 | 2.6 | > 100 | 1.95 | > 55.6 | 0.951 | > 43.7 | 0.365 | 4.18 | 5.62 | 30.5 | 5.55 | 43.1 | 0.484 | 14.6 | > 100 | > 100 | > 100 | > 30.9 | > 100 | > 100
6 | O=CN1N=C(c2ccc(Nc3ccnc4cc(Cl)ccc34)cc2)CC1c1ccccc1 (configuration not stated) | 3.82 | 32.2 | 2.21 | 6.15 | 3.58 | 18.5 | 2.66 | 6.21 | 5.26 | 76.5 | 4.28 | > 100 | 3.21 | 2.43 | 13.7 | 3.88 | > 100 | 10.1 | > 100 | 11.1
